Test results: ChEMBL document CHEMBL3507680, “University of Dundee, Gates Library screen for HepG2 cell viability”

Experiment: Human HepG2 cell viability assay in 384 well format
Type: toxicity, cell-based
Set-up: dose 125 nL, time 70.5 hour; cytotoxicity at 70.5 h: concentration not given beside the values
Conditions: HepG2 cells, read-out: Inhibition

| SMILES | cytotoxicity at 70.5 h [%] |
| --- | --- |
| CSc1ccc(CNC(=O)Cc2c(C)n[nH]c2C)cc1 | -6.16 |
| CCc1ccc(NC(=O)c2cnc(N3CCCC3)nc2C)cc1 | -2.19 |
| Cc1nc(N2CCCC2)ncc1C(=O)Nc1ccc(Br)cc1 | -2.71 |
| Cc1nc(-c2ccc(S(=O)(=O)N3CCC4(CC3)OCCO4)cc2)co1 | -7.29 |
| Cc1nc(-c2ccc(S(=O)(=O)N3CCOCC3)cc2)co1 | -6.53 |
| CCn1nc(C)c2ccn(CC(=O)NCCCOC)c(=O)c21 | -6.99 |
| Cc1nn(C)c2c(=O)n(CC(=O)NCc3ccccc3Cl)ccc12 | 8.11 |
| Cc1nn(C)c2c(=O)n(CC(=O)NCC3CCCO3)ccc12 (stereo not given) | -4.99 |
| COc1ccc(NC(=O)C(c2ccc(OC)cc2)N2CCOCC2)cc1 (stereo not given) | 0.848 |
| CC1=C(c2ccc(Cl)cc2)S(=O)(=O)N=C1N1CCc2ccccc21 | -2.07 |
| CC1=C(c2ccc(C(C)C)cc2)S(=O)(=O)N=C1N1CCc2ccccc21 | 33.6 |
| CCOc1nc2cnccc2n(CC(=O)NCc2ccc(C)cc2)c1=O | -9.89 |
| CN(C)c1ccc(C(CNS(=O)(=O)c2cccs2)N2CCCC2)cc1 (stereo not given) | -2.5 |
| COc1ccc(C2OC(COc3ccc(C)cc3)=NN2C(C)=O)cc1 (stereo not given) | 0.8 |
| COc1ccc(NC(=O)c2nc3ccccc3n(C)c2=O)c(OC)c1 | -0.905 |
| Cc1cccc(C2CCCCCN2Cc2cn(C)nc2C)c1 (stereo not given) | -9.15 |
| Cc1ccsc1C1CCCCCN1Cc1cn(C)nc1C (stereo not given) | -13.5 |
| COc1cccc(CN2CCCCCC2c2cccs2)c1OC (stereo not given) | -10.1 |
| CCS(=O)(=O)N1CCc2ccc(NC(=O)NC3CCCCC3)cc21 | -7.09 |
| CCS(=O)(=O)N1CCc2ccc(NC(=O)NCCc3ccccc3)cc21 | -6.1 |
| COC(=O)c1cccc(C(=O)N2CCN(c3cc(C)ccc3C)CC2)n1 | 0.723 |
| COC(=O)c1cccc(C(=O)N2CCN(c3cc(Cl)ccc3C)CC2)n1 | -2.22 |
| CCn1nc(C)c2ccn(CC(=O)NCC3CCCO3)c(=O)c21 (stereo not given) | -5.94 |
| CCn1nc(C)c2ccn(CC(=O)NCCN3CCCCC3)c(=O)c21 | -5.13 |
| COCc1cnc2n1CCN(S(=O)(=O)c1c(C)nn(C)c1C)C2C (stereo not given) | 29 |
| CC1c2ncc(COCC3CC3)n2CCN1S(=O)(=O)N(C)C (stereo not given) | -1.15 |
| O=C(C1CCCO1)N1CCc2nnc(Cn3cccc3)n2CC1 (stereo not given) | -7.61 |

| SMILES | cytotoxicity at 70.5 h [%] |
| --- | --- |
| CC(C)Nc1nc2c(c(NC3CC3)n1)CCN(C1CCOCC1)CC2 | -3.76 |
| COC(=O)CCC(=O)N1CCc2nc(C(=O)N3CCOCC3)sc2CC1 | 1.24 |
| CCO[C@@H]1CC[C@H]2[C@H]1OCCN2C(=O)c1ccc(OC)c(F)c1 | -4.73 |
| CC(=O)N1CCOCC2(C1)CN(S(C)(=O)=O)CCO2 (stereo not given) | -9.18 |
| COc1cc(C(=O)N2CCO[C@H]3[C@H](OCC4CC4)CC[C@@H]32)ccc1F | -5.96 |
| CCn1cc2c(n1)C(COCC1CC1)CN(C(=O)c1ccco1)C2 (stereo not given) | -10.5 |
| CCOCC1CN(C(=O)c2cnoc2C)Cc2cn(CC3CC3)nc21 (stereo not given) | -8.9 |
| COC(=O)CCC(=O)N1CCc2nc(C(=O)N(C)C)sc2CC1 | -10.1 |
| CC(C)N1CCc2ncn(C(C)C)c2C1C(=O)N1CCN(C)CC1 (stereo not given) | 6.34 |
| CCOCC1COCCC12CCN(C(=O)C1=CCCC1)CC2 (stereo not given) | -5.05 |
| COCC1COCCC12CCN(C(=O)CC1=CCCCC1)CC2 (stereo not given) | -2.79 |
| CCS(=O)(=O)N1C[C@H]2CN(c3cnn(C)c3)C(=O)[C@H]2C1 | -5.61 |
| CN(C)C(=O)[C@H]1C[C@@H]2CN(C(=O)NCC3CCCCC3)C[C@H]1O2 | -0.82 |
| O=C(NCC1CCCCC1)N1C[C@H]2C[C@H](C(=O)N3CCCC3)[C@@H](C1)O2 | -1.84 |
| CC(=O)NCC(=O)N1CCc2c(CN(C)C)nn(C(C)C)c2C1 | -2.84 |
| N#Cc1ccc2c(c1)CN(C(=O)c1nc[nH]n1)C2c1cnco1 (stereo not given) | -2.48 |
| CC1NC(=O)COC12CCN(C(=O)Cc1ccsc1)CC2 (stereo not given) | 4.29 |
| CN1C[C@H](COCC2CC2)[C@H]2CCN(Cc3ccco3)CC[C@H]2C1=O | 7.68 |
| Cn1cc(N2C[C@@H]3CN(S(=O)(=O)C4CC4)C[C@@H]3C2=O)cn1 | 2.74 |
| Cc1ncnc2c1CCN(C(=O)Cc1cccc(F)c1)CC2 | 0.979 |
| CC(C)n1c(C(=O)N2CCCC2)nc2c1CCN(c1ncccn1)C2 | 0.473 |
| COc1ncnc2c1CCN(C(=O)NCc1cccc(F)c1)CC2 | -6.04 |
| CCOCC1COCCC12CCN(C(=O)CC1=CCCCC1)CC2 (stereo not given) | -5.12 |
| CC1N(C)C(=O)COC12CCN(C(=O)Cc1ccsc1)CC2 (stereo not given) | -5.66 |
| O=C(C1CC1)N1CCC2(CC1)CNCc1ccccc12 | 18.9 |
| CN1C(=O)C2(CCN(S(=O)(=O)C3CC3)CC2)c2ccccc21 | -2.07 |
| c1cnc(N2C[C@H](OCC3CCOCC3)[C@H]3COC[C@H]32)nc1 | -1.34 |

| SMILES | cytotoxicity at 70.5 h [%] |
| --- | --- |
| COc1ccc(-c2cnc3n2CCNC32CCN(S(C)(=O)=O)CC2)cc1 | -6.19 |
| Cc1ccc(CNC(=O)c2nc3c(o2)CN(c2ncccn2)C3)o1 | -2.56 |
| CC(C)N(C)[C@@H]1CCN(Cc2ccoc2)[C@H]1Cc1ccccc1 | -1.21 |
| CN1CCN(CCO)C(=O)C12CCN(c1nccs1)CC2 | -2.35 |
| CS(=O)(=O)N1CCn2c(C(=O)N3CCOCC3)cnc2C1 | -0.596 |
| CNC(=O)[C@@H]1CC[C@@H]2[C@@H](CCN2C(=O)N(C)C)O1 | -0.00257 |
| CS(=O)(=O)N1CC[C@H]2O[C@H](C(=O)NCc3cccnc3)CC[C@H]21 | 0.629 |
| CCCS(=O)(=O)N1CCC2(CC(C(=O)NCc3cccnc3)=NO2)C1 (stereo not given) | -10.3 |
| O=C(NCCc1ccncc1)[C@H]1CC[C@@H]2[C@@H](CCN2C2CCC2)O1 | -7.73 |
| CNC(=O)N1CC[C@@H]2CN(Cc3cccc(Cl)c3)S(=O)(=O)[C@@H]2CC1 | -4.42 |
| COCC(=O)N1CCC2(CC(C(=O)NCc3cccnc3)=NO2)C1 (stereo not given) | -5.23 |
| CCCS(=O)(=O)N1CCOC2(CCCN(c3ccc(C)nn3)C2)C1 (stereo not given) | -6.62 |
| CS(=O)(=O)N1CC[C@H]2O[C@@H](C(=O)NCc3ccco3)CC[C@H]21 | -12 |
| Cc1ccsc1CN1CC[C@H]2O[C@H](C(=O)N3CCCO3)CC[C@H]21 | -8.24 |
| O=C(c1cccc(F)c1)N1C[C@H]2CCCC(OCc3cccnc3)[C@H]2C1 (stereo not given in full) | -7.83 |
| CN(C)C(=O)N1CCC2(CC1)NC(=O)c1ccccc12 | -2.99 |
| CS(=O)(=O)N1C[C@H](C(=O)Nc2cccnc2)C[C@H]2OCC[C@H]21 | 6.21 |
| O=C([C@H]1COC[C@H]2CN(CC3CCCC3)C[C@H]21)N1CCOCC1 | 2.13 |
| CCOCC1CN(C(=O)c2cnoc2C)Cc2cn(C)nc21 (stereo not given) | -5.33 |
| CN(C)Cc1nn(C)c2c1CCN(C(=O)CC1CC1)C2 | 39.3 |
| O=S(=O)(NC1CCC12CCN(CC1CC1)CC2)c1ccccc1 (stereo not given) | 11.7 |
| O=C(NC1CC1)N1CC[C@H]2[C@H]1CCN2c1nncs1 | 6.09 |
| O=C(C1CCOCC1)N1CC[C@H]2[C@H]1CCN2c1nncs1 | -0.658 |
| CC(C)n1nc(CN(C)C)c2c1CN(C(=O)CC1CC1)CC2 | -4.55 |
| O=S(=O)(NC1CCC12CCN(CC1CCOCC1)CC2)c1ccccc1 (stereo not given) | -2.17 |
| CC(C)CN1CCN(C)C2(CCN(c3nccs3)CC2)C1=O | 33.2 |
| O=C(NC1CC2(CCN(CCO)CC2)c2ccccc21)c1ccno1 (stereo not given) | 17.6 |

| SMILES | cytotoxicity at 70.5 h [%] |
| --- | --- |
| CN1CC2(CCN(S(=O)(=O)C3CC3)CC2)c2ccccc21 | 11 |
| CCOCC1CN(C(=O)COc2ccccc2C)Cc2ncn(C)c21 (stereo not given) | -4.87 |
| CCOCC(=O)N1Cc2[nH]nc(COCC3CC3)c2C1 | 0.817 |
| CC(C)C(=O)N1CCCC2(CC(C(=O)NCc3cccnc3)=NO2)C1 (stereo not given) | -2.66 |
| O=C([C@@H]1CC[C@@H]2[C@@H](CCN2Cc2cccs2)O1)N1CCCCO1 | -7.83 |
| O=C(N1CCCC1)N1CCO[C@H]2[C@@H](OCc3cccnc3)CC[C@@H]21 | -8.11 |
| Cc1ccc2c(n1)N(CC1CC1)CCN(C(=O)NC1CC1)C2 | -7.71 |
| Cn1cc(C(=O)N[C@@H]2CN(Cc3ccc(F)cc3)[C@@H]3CCCO[C@@H]32)cn1 | -4.56 |
| CC(C)n1cnc2c1C(C(=O)NCCO)N(Cc1ccccc1)CC2 (stereo not given) | -8.21 |
| O=C(C1=CCCCC1)N1CCO[C@H]2[C@H](Oc3ccccn3)CC[C@@H]21 | -9.07 |
| Cn1cccc1CN1CCC2(CC1)CC(Oc1cccnc1)C2 | 6.62 |
| COc1cc(N2C[C@H]3CCN(CCN4CCCC4)C[C@H]3C2)ncn1 | -1.14 |
| Cc1cccc(CN2CCC3(CC2)CC(Oc2cccnc2)C3)n1 | -0.691 |
| c1ccc(CO[C@@H]2C[C@H]3CN(c4ncccn4)CCN3C2)cc1 | 5.2 |
| Cc1cnc(N2CCN3C[C@H](OCc4ccccn4)C[C@H]3C2)nc1 | -2.63 |
| CC(C)n1nc(CN(C)C)c2c1CN(CC1CC1)CC2 | 2.39 |
| COCCN1CCO[C@@H]2CN(Cc3ccc(C)o3)C[C@@H]2C1 | 1.59 |
| c1cncc(CN2CCOC(c3ncn4c(C5CC5)cccc34)C2)c1 (stereo not given) | -3.57 |
| Cn1cncc1CNC1CC2(CCN(CC3CC3)CC2)c2ccccc21 (stereo not given) | -2.23 |
| c1cc(C2CC2)n2cnc(C3CN(Cc4ccncc4)CCO3)c2c1 (stereo not given) | -1.44 |
| CS(=O)(=O)N1CCC2(CC1)NCCn1c(-c3ccccc3)cnc12 | -7.68 |
| COCCN1CC[C@]2(CN(Cc3ccccn3)C[C@H]2C)C1=O | 1.87 |
| c1cnc(N2CCOCC3(CCCN(CC4CCOCC4)C3)C2)nc1 (stereo not given) | -1.71 |
| CN(C)CCn1c2c(ccc1=O)CC(NCc1cccnc1)CC2 (stereo not given) | -0.247 |
